Data on eight compounds can be found in PubChem BioAssay (NCI).

SMILES strings stand for the structures.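 Five concentrations, 48 hours, 96-well plates. GI50 = concentration required for 50% inhibition of growth. At the TGI there is no net growth.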

Test systems include HS 578T breast; SF-295 CNS; SNB-19 CNS; OVCAR-5 ovarian; SF-539 CNS; SN12C renal; RPMI-8226 leukemia; KM12 colon.
What all share (assay): NCI anticancer screen, dose series, 48 h

For `Cc1cc(C)c([I+]c2c(C)cc(C)cc2C)c(C)c1`, the GI50 with HS 578T breast is 0.795 µM; with SF-295 CNS, 0.591 µM; in the assay with SNB-19 CNS, 0.444 µM; in the assay on OVCAR-5 ovarian, 0.781 µM; in the assay on SF-539 CNS it was 0.891 µM; with SN12C renal, 0.301 µM. For the same compound, the TGI in the assay with HS 578T breast is 2.68 µM; in the assay on SF-295 CNS it was 2.18 µM; in the assay on SNB-19 CNS it was 1.76 µM; in the assay on OVCAR-5 ovarian, 2.09 µM; in the assay with SF-539 CNS, 2.16 µM; in the assay with SN12C renal, 1.21 µM.

Take `C=C(C)[C@@H]1C/C=C(/COC(C)=O)CC[C@H]2O[C@@]2(C)CC/C=C(\C)CC1`: the GI50 with HS 578T breast is more than 100 µM; in the assay on SF-295 CNS, more than 100 µM; with RPMI-8226 leukemia, 21.1 µM; in the assay on SNB-19 CNS it was more than 100 µM; in the assay with KM12 colon it was more than 100 µM; in the assay with OVCAR-5 ovarian, more than 100 µM. The GI50 in the assay with SN12C renal is more than 100 µM. In addition, the TGI in the assay on HS 578T breast was more than 100 µM; in the assay with SF-295 CNS, more than 100 µM; with RPMI-8226 leukemia, 44 µM; with SNB-19 CNS it was more than 100 µM; in the assay on KM12 colon it was more than 100 µM; with OVCAR-5 ovarian, more than 100 µM. In addition, in the assay on SN12C renal, the TGI was more than 100 µM.

Turning to `COc1ccc2c(c1)/C(=C\c1c(-c3ccccc3)nc3sccn13)C(=O)N2`, the GI50 in the assay on SF-295 CNS is 0.268 µM; in the assay on RPMI-8226 leukemia, 1.57 µM; with SNB-19 CNS, more than 21.5 µM; in the assay on KM12 colon it was 1.55 µM; in the assay on OVCAR-5 ovarian, 5.13 µM; with SF-539 CNS it was 8.23 µM. The GI50 with SN12C renal is 9.57 µM. The TGI in the assay on SF-295 CNS was 0.967 µM; with RPMI-8226 leukemia, 5.51 µM; in the assay with SNB-19 CNS, more than 58.3 µM; with OVCAR-5 ovarian, 40.4 µM; with SF-539 CNS, 20.5 µM; in the assay on SN12C renal it was more than 26.6 µM.

With `Cc1cccc2c(=O)c3c(sc12)c(NCCCN)nc1ccccc13`, the GI50 is 1.75 µM in the assay with SF-295 CNS; 1.77 µM in the assay on RPMI-8226 leukemia; 1.65 µM with KM12 colon; 1.56 µM in the assay on OVCAR-5 ovarian; 1.69 µM in the assay with SF-539 CNS; 1.47 µM with SN12C renal. Further, the TGI amounted to 3.29 µM with SF-295 CNS; 3.88 µM with RPMI-8226 leukemia; 3.21 µM with KM12 colon; 3.03 µM with OVCAR-5 ovarian; 3.09 µM with SF-539 CNS; 2.93 µM in the assay on SN12C renal.

As to `C/C(COc1ccc2oc(-c3ccccc3)cc(=O)c2c1)=N\O`, the GI50 with SF-295 CNS is 12.8 µM; with RPMI-8226 leukemia, 22.3 µM; with SNB-19 CNS, 26.7 µM; in the assay with KM12 colon it was 2.39 µM; in the assay on OVCAR-5 ovarian, 22 µM; with SF-539 CNS it was 2.1 µM. Besides, the GI50 in the assay on SN12C renal is 24 µM. Moreover, the TGI was 33.6 µM with SF-295 CNS; 62.3 µM in the assay on RPMI-8226 leukemia; more than 100 µM with SNB-19 CNS; 39.7 µM in the assay on KM12 colon; 84.7 µM in the assay with OVCAR-5 ovarian; 5.8 µM in the assay with SF-539 CNS. Further, in the assay on SN12C renal, the TGI is more than 100 µM.

In the case of `CO[C@H]1/C=C/O[C@@]2(C)Oc3c(C)c(O)c4c(O)c(c(/C=N/N5C(C)CN(Cc6ccc(C#N)cc6)CC5C)c(O)c4c3C2=O)NC(=O)/C(C)=C\C=C\[C@H](C)[C@H](O)[C@@H](C)[C@@H](O)[C@@H](C)[C@H](OC(C)=O)[C@@H]1C` (stereo not given in full), the GI50 is 8.83 µM in the assay on HS 578T breast; 2.88 µM in the assay on SF-295 CNS; 7.55 µM in the assay with SNB-19 CNS; 5.89 µM in the assay on KM12 colon; 8.88 µM in the assay with OVCAR-5 ovarian; 6.22 µM in the assay with SF-539 CNS. The GI50 in the assay on SN12C renal is 6.73 µM. Also, the TGI turned out to be 20.3 µM in the assay on HS 578T breast; 12.2 µM in the assay on SF-295 CNS; 18.1 µM in the assay on SNB-19 CNS; 12.7 µM in the assay on KM12 colon; 18.1 µM with OVCAR-5 ovarian; 13 µM in the assay on SF-539 CNS. Further, in the assay with SN12C renal, the TGI stood at 13.6 µM.

Consider `NC(CCl)=NCC12CC3CC(CC(C3)C1)C2`, for which the GI50 in the assay on HS 578T breast was 4.47 µM; with SF-295 CNS it was 2.29 µM; in the assay on SNB-19 CNS it was 10 µM; with KM12 colon it was 0.96 µM; in the assay with OVCAR-5 ovarian, 3.73 µM; with SF-539 CNS, 0.702 µM. Further, in the assay on SN12C renal, the GI50 was 1.56 µM. In addition, the TGI is 42.1 µM in the assay with HS 578T breast; 16.2 µM in the assay with SF-295 CNS; 23 µM in the assay with SNB-19 CNS; 3.47 µM in the assay with KM12 colon; 11.1 µM in the assay on OVCAR-5 ovarian; 11.2 µM in the assay with SF-539 CNS. This compound also registered a TGI with SN12C renal of 15.7 µM.

As for `FC(F)(F)c1cccc(Oc2ccc(Nc3ncnc4ccc(OCCCN5CCOCC5)cc34)cc2Cl)c1`, the GI50 is 1.75 µM in the assay on SF-295 CNS; 2.34 µM with SNB-19 CNS; 2.29 µM with KM12 colon; 2.45 µM in the assay on OVCAR-5 ovarian; 1.86 µM in the assay with SF-539 CNS; 2.2 µM in the assay with SN12C renal. Further, the TGI with SF-295 CNS came out at 3.49 µM; in the assay with SNB-19 CNS, 7.15 µM; in the assay on KM12 colon it was 5.59 µM; in the assay on OVCAR-5 ovarian, 7.76 µM; in the assay on SF-539 CNS, 3.33 µM; with SN12C renal, 11.8 µM.
